From PubChem BioAssay (NCI)
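Growth conditions: 96-well plates. Treatment: test compound, 48 hours, 5 concentrations. Analysis: linear interpolation between bracketing concentrations; unreached endpoints set to highest concentration. At the TGI there is no net growth.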

Key:
Assay in all cases: NCI tumour cell line growth inhibition, 48 h
NCI/ADR-RES ovarian = system: NCI/ADR-RES ovarian
SNB-75 CNS = system: SNB-75 CNS
HCT-116 colon = system: HCT-116 colon
SF-295 CNS = system: SF-295 CNS
K-562 leukemia = system: K-562 leukemia
U251 CNS = system: U251 CNS
KM12 colon = system: KM12 colon
HCC-2998 colon = system: HCC-2998 colon
MOLT-4 leukemia = system: MOLT-4 leukemia
IGROV1 ovarian = system: IGROV1 ovarian
DMS 273 small cell lung = system: DMS 273 small cell lung
HT29 colon = system: HT29 colon
SN12K1 renal = system: SN12K1 renal
SW-620 colon = system: SW-620 colon
OVCAR-4 ovarian = system: OVCAR-4 ovarian
SK-MEL-5 melanoma = system: SK-MEL-5 melanoma
UO-31 renal = system: UO-31 renal
HCT-15 colon = system: HCT-15 colon
NCI-H226 lung = system: NCI-H226 lung
OVCAR-5 ovarian = system: OVCAR-5 ovarian
A498 renal = system: A498 renal
HOP-92 NSCLC = system: HOP-92 NSCLC
XF 498 CNS = system: XF 498 CNS
MALME-3M melanoma = system: MALME-3M melanoma
HOP-62 NSCLC = system: HOP-62 NSCLC
SF-539 CNS = system: SF-539 CNS
NCI-H460 lung = system: NCI-H460 lung
P388/ADR leukemia = system: P388/ADR leukemia
RXF 393 renal = system: RXF 393 renal
CAKI-1 renal = system: CAKI-1 renal
DMS 114 small cell lung = system: DMS 114 small cell lung
P388 leukemia = system: P388 leukemia
SK-MEL-2 melanoma = system: SK-MEL-2 melanoma
LOX IMVI melanoma = system: LOX IMVI melanoma
UACC-257 melanoma = system: UACC-257 melanoma
KM20L2 colon = system: KM20L2 colon
CCRF-CEM leukemia = system: CCRF-CEM leukemia
M19-MEL melanoma = system: M19-MEL melanoma
UACC-62 melanoma = system: UACC-62 melanoma
SK-MEL-28 melanoma = system: SK-MEL-28 melanoma
COLO 205 colon = system: COLO 205 colon
DLD-1 colon = system: DLD-1 colon
SK-OV-3 ovarian = system: SK-OV-3 ovarian
HOP-18 NSCLC = system: HOP-18 NSCLC
SNB-19 CNS = system: SNB-19 CNS
HL-60(TB) leukemia = system: HL-60(TB) leukemia
EKVX NSCLC = system: EKVX NSCLC
RPMI-8226 leukemia = system: RPMI-8226 leukemia
SN12C renal = system: SN12C renal
NCI-H522 lung = system: NCI-H522 lung
OVCAR-8 ovarian = system: OVCAR-8 ovarian
NCI-H23 lung = system: NCI-H23 lung
SF-268 CNS = system: SF-268 CNS
OVCAR-3 ovarian = system: OVCAR-3 ovarian
MCF7 breast = system: MCF7 breast
A549 NSCLC = system: A549 NSCLC
ACHN renal = system: ACHN renal
SNB-78 CNS = system: SNB-78 CNS
RXF-631 renal = system: RXF-631 renal
TK-10 renal = system: TK-10 renal
786-0 renal = system: 786-0 renal
M14 melanoma = system: M14 melanoma

SMILES: CC(C)=CCc1c(C)cc2cc3c(c(O)c2c1O)C(O)=CC(=O)C3(CC=C(C)C)C/C=C(\C)CO (centres undefined)
- TGI (NCI/ADR-RES ovarian): 102 µM
- TGI (SNB-75 CNS): 92.8 µM
- TGI (HCT-116 colon): 72.3 µM
- TGI (SF-295 CNS): 87.9 µM
- TGI (K-562 leukemia): 90.9 µM
- TGI (U251 CNS): 70 µM
- TGI (KM12 colon): 81.7 µM
- TGI (HCC-2998 colon): 88.6 µM
- TGI (MOLT-4 leukemia): 75.7 µM
- TGI (IGROV1 ovarian): 79.6 µM
- TGI (DMS 273 small cell lung): 109 µM
- TGI (HT29 colon): 81.4 µM
- TGI (SN12K1 renal): 62 µM
- TGI (SW-620 colon): 78.9 µM
- TGI (OVCAR-4 ovarian): 87 µM
- TGI (SK-MEL-5 melanoma): 50.9 µM
- TGI (UO-31 renal): 64.4 µM
- TGI (HCT-15 colon): 68 µM
- TGI (NCI-H226 lung): 77 µM
- TGI (OVCAR-5 ovarian): 84.6 µM
- TGI (A498 renal): 15.2 µM
- TGI (HOP-92 NSCLC): 75.6 µM
- TGI (XF 498 CNS): 53.5 µM
- TGI (MALME-3M melanoma): 63.8 µM
- TGI (HOP-62 NSCLC): 64.3 µM
- TGI (SF-539 CNS): 76.2 µM
- TGI (NCI-H460 lung): 98.9 µM
- TGI (P388/ADR leukemia): 80 µM
- TGI (RXF 393 renal): 63.4 µM
- TGI (CAKI-1 renal): 91.3 µM
- TGI (DMS 114 small cell lung): 82 µM
- TGI (P388 leukemia): 101 µM
- TGI (SK-MEL-2 melanoma): 29.8 µM
- TGI (LOX IMVI melanoma): 77.4 µM
- TGI (UACC-257 melanoma): 82.6 µM
- TGI (KM20L2 colon): 76.6 µM
- TGI (CCRF-CEM leukemia): 60.1 µM
- TGI (M19-MEL melanoma): 79.9 µM
- TGI (UACC-62 melanoma): 67.5 µM
- TGI (SK-MEL-28 melanoma): 86.8 µM
- TGI (COLO 205 colon): 80.1 µM
- TGI (DLD-1 colon): 70.9 µM
- TGI (SK-OV-3 ovarian): 71.4 µM
- TGI (HOP-18 NSCLC): 35.3 µM
- TGI (SNB-19 CNS): 86.2 µM
- TGI (HL-60(TB) leukemia): 51.3 µM
- TGI (EKVX NSCLC): 70.7 µM
- TGI (RPMI-8226 leukemia): 67.6 µM
- TGI (SN12C renal): 76.8 µM
- TGI (NCI-H522 lung): 65.2 µM
- TGI (OVCAR-8 ovarian): 76.8 µM
- TGI (NCI-H23 lung): 84.8 µM
- TGI (SF-268 CNS): 85.4 µM
- TGI (OVCAR-3 ovarian): 76.3 µM
- TGI (MCF7 breast): 84.3 µM
- TGI (A549 NSCLC): 77 µM

SMILES: O=c1c2cc(Br)cc(Br)c2[nH]c(=S)n1-c1ccccc1
- TGI (ACHN renal): > 100 µM
- TGI (SNB-78 CNS): > 100 µM
- TGI (SNB-75 CNS): > 100 µM
- TGI (RXF-631 renal): > 100 µM
- TGI (HCT-116 colon): > 100 µM
- TGI (SF-295 CNS): > 100 µM
- TGI (K-562 leukemia): > 100 µM
- TGI (U251 CNS): > 100 µM
- TGI (KM12 colon): > 100 µM
- TGI (HCC-2998 colon): > 100 µM
- TGI (IGROV1 ovarian): > 100 µM
- TGI (DMS 273 small cell lung): > 100 µM
- TGI (TK-10 renal): > 100 µM
- TGI (HT29 colon): > 100 µM
- TGI (SW-620 colon): > 100 µM
- TGI (OVCAR-4 ovarian): > 100 µM
- TGI (SK-MEL-5 melanoma): > 100 µM
- TGI (UO-31 renal): > 100 µM
- TGI (HCT-15 colon): > 100 µM
- TGI (NCI-H226 lung): > 100 µM
- TGI (OVCAR-5 ovarian): > 100 µM
- TGI (A498 renal): > 100 µM
- TGI (HOP-92 NSCLC): > 100 µM
- TGI (XF 498 CNS): 78.9 µM
- TGI (MALME-3M melanoma): > 100 µM
- TGI (786-0 renal): > 100 µM
- TGI (HOP-62 NSCLC): > 100 µM
- TGI (SF-539 CNS): > 100 µM
- TGI (NCI-H460 lung): > 100 µM
- TGI (CAKI-1 renal): > 100 µM
- TGI (M14 melanoma): > 100 µM
- TGI (DMS 114 small cell lung): > 100 µM
- TGI (SK-MEL-2 melanoma): > 100 µM
- TGI (LOX IMVI melanoma): > 100 µM
- TGI (UACC-257 melanoma): > 100 µM
- TGI (KM20L2 colon): > 100 µM
- TGI (CCRF-CEM leukemia): > 100 µM
- TGI (M19-MEL melanoma): > 100 µM
- TGI (UACC-62 melanoma): > 100 µM
- TGI (SK-MEL-28 melanoma): > 100 µM
- TGI (COLO 205 colon): > 100 µM
- TGI (DLD-1 colon): > 100 µM
- TGI (SK-OV-3 ovarian): > 100 µM
- TGI (HOP-18 NSCLC): > 100 µM
- TGI (SNB-19 CNS): > 100 µM
- TGI (EKVX NSCLC): > 100 µM
- TGI (RPMI-8226 leukemia): > 100 µM
- TGI (SN12C renal): > 100 µM
- TGI (OVCAR-8 ovarian): > 100 µM
- TGI (NCI-H23 lung): > 100 µM
- TGI (SF-268 CNS): > 100 µM
- TGI (OVCAR-3 ovarian): > 100 µM
- TGI (A549 NSCLC): > 100 µM
